Assay results reported in ChEMBL document CHEMBL1201862, “PubChem BioAssay data set” (2004).
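Following 48 hours of exposure in 96-well plates, responses at five concentrations were used to interpolate endpoints linearly. GI50: concentration for 50% inhibition of growth.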 Active and inactive are the calls of the source. No stated cut-off is given here; in the data, active = GI50 up to about 1.1 µM and inactive = higher.

How the values were obtained:
Experiment in all cases: NCI anticancer screen, dose series, 48 h
UACC-62 = system: UACC-62
HOP-62 = system: HOP-62
IGROV-1 = system: IGROV-1
LOX IMVI = system: LOX IMVI
SK-MEL-28 = system: SK-MEL-28
TK-10 = system: TK-10
SN12C = system: SN12C
OVCAR-4 = system: OVCAR-4
A549 = system: A549
CAKI-1 = system: CAKI-1
UO-31 = system: UO-31
UACC-257 = system: UACC-257
HCC 2998 = system: HCC 2998
SF-268 = system: SF-268
NCI/ADR-RES = system: NCI/ADR-RES
HT-29 = system: HT-29
RXF 393 = system: RXF 393
HOP-92 = system: HOP-92
NCI-H522 = system: NCI-H522
SF-539 = system: SF-539

Measured: GI50

CCCC[C@H]1[C@@H](OCOc2ccccc2)COC(=O)N1[C@H](C)c1ccccc1
inactive: UACC-62 10.3 µM | HOP-62 13.8 µM | IGROV-1 14.7 µM | LOX IMVI 20.8 µM | SK-MEL-28 21.6 µM | TK-10 15.6 µM | SN12C 10.2 µM | OVCAR-4 10.3 µM | A549 8.79 µM | CAKI-1 13.5 µM | UO-31 11.8 µM | UACC-257 9.66 µM | HCC 2998 17.7 µM | SF-268 16.6 µM | NCI/ADR-RES > 34.3 µM | HT-29 > 34.2 µM | RXF 393 19 µM | HOP-92 18.1 µM | NCI-H522 10.3 µM

CN(C)CCNC(=O)c1cccc2c1C(=O)c1ccccc1C2=O
inactive: UACC-62 21.4 µM | HOP-62 > 31.6 µM | IGROV-1 26.4 µM | LOX IMVI 25.6 µM | SK-MEL-28 45.3 µM | SN12C 33.7 µM | OVCAR-4 28.2 µM | SF-539 40.6 µM | A549 37.2 µM | CAKI-1 32.4 µM | UO-31 54 µM | UACC-257 19.5 µM | HCC 2998 39.1 µM | SF-268 > 100 µM | NCI/ADR-RES 27.4 µM | HT-29 26.2 µM | RXF 393 55 µM | HOP-92 23.8 µM | NCI-H522 25.1 µM

CC1=C[C@]2(CC(C)C3C(CC4(C)C5CCC6C(C)(C)C(=O)CC[C@@]67C[C@@]57CC[C@]34C)O2)OC1=O (some centres undefined)
inactive: IGROV-1 6.32 µM | LOX IMVI 3.46 µM | SK-MEL-28 18.6 µM | TK-10 26 µM | SN12C 41.1 µM | OVCAR-4 19 µM | SF-539 13.8 µM | A549 16.6 µM | CAKI-1 16.9 µM | UACC-257 8.63 µM | HCC 2998 18.1 µM | SF-268 33.9 µM | HT-29 9.31 µM | RXF 393 5.11 µM | HOP-92 18.1 µM

CCOC(C)OC1CC(n2cc(C)c(=O)[nH]c2=O)OC1CO (centres undefined)
inactive: HOP-62 > 100 µM | IGROV-1 > 100 µM | LOX IMVI > 100 µM | SK-MEL-28 > 100 µM | TK-10 > 100 µM | SN12C > 100 µM | OVCAR-4 > 100 µM | SF-539 > 100 µM | A549 > 100 µM | UO-31 > 100 µM | UACC-257 > 100 µM | HCC 2998 > 100 µM | SF-268 > 100 µM | HT-29 > 100 µM | RXF 393 > 100 µM | HOP-92 > 100 µM | NCI-H522 > 100 µM

CCN(CC)CCOC(=O)c1ccc(N)cc1.CCOC(=O)Nc1ccc(S(=O)(=O)OC)cc1.CCOC(=O)Nc1ccc(S(=O)(=O)OC)cc1.Nc1ccc(C(=O)O)c(O)c1
inactive: UACC-62 > 100 µM | HOP-62 > 100 µM | IGROV-1 > 100 µM | LOX IMVI > 100 µM | SK-MEL-28 > 100 µM | TK-10 > 100 µM | SN12C > 100 µM | OVCAR-4 > 100 µM | SF-539 > 100 µM | A549 > 100 µM | CAKI-1 > 100 µM | UO-31 > 100 µM | UACC-257 > 100 µM | HCC 2998 > 100 µM | SF-268 > 100 µM | HT-29 > 100 µM | RXF 393 > 100 µM | HOP-92 > 100 µM | NCI-H522 > 100 µM

COc1cccc(N2C(=O)C3c4[nH]c5ccc(C)cc5c4C4CCC(C(C)(C)C)CC4C3C2=O)c1 (centres undefined)
inactive: UACC-62 > 10 µM | HOP-62 > 10 µM | IGROV-1 > 10 µM | LOX IMVI 2.43 µM | SK-MEL-28 4.61 µM | TK-10 > 10 µM | SN12C 3.15 µM | OVCAR-4 6.27 µM | SF-539 2.86 µM | A549 3.38 µM | CAKI-1 9.84 µM | UO-31 2.8 µM | HCC 2998 4.11 µM | SF-268 4.73 µM | NCI/ADR-RES 3.51 µM | HT-29 4.08 µM | RXF 393 3.8 µM | NCI-H522 1.87 µM

Nc1ncc2c(n1)-c1ccccc1OC2
inactive: UACC-62 55.7 µM | HOP-62 76 µM | IGROV-1 40.4 µM | LOX IMVI > 100 µM | SK-MEL-28 > 100 µM | SN12C > 100 µM | OVCAR-4 > 31.6 µM | SF-539 > 100 µM | A549 > 100 µM | UO-31 45.2 µM | UACC-257 > 100 µM | HCC 2998 > 100 µM | SF-268 > 100 µM | NCI/ADR-RES > 100 µM | HT-29 > 100 µM | RXF 393 > 69.2 µM | HOP-92 98.4 µM | NCI-H522 > 100 µM

CC1=CC2c3cccc4[nH]cc(c34)CC2N(C)C1 (centres undefined)
inactive: UACC-62 > 91.8 µM | HOP-62 15.8 µM | IGROV-1 > 100 µM | LOX IMVI 70.8 µM | SK-MEL-28 > 100 µM | SN12C > 89.5 µM | OVCAR-4 > 100 µM | SF-539 > 100 µM | A549 > 100 µM | CAKI-1 66.7 µM | UO-31 11.9 µM | UACC-257 22.4 µM | HCC 2998 25.5 µM | SF-268 > 100 µM | NCI/ADR-RES > 100 µM | HT-29 49.4 µM | RXF 393 > 100 µM | HOP-92 24.4 µM | NCI-H522 > 100 µM

COc1cc([C@@H]2c3cc4c(c(O[C@@H]5O[C@H]6CO[C@@H](C)O[C@H]6[C@H](O)[C@@H]5O)c3C[C@H]3COC(=O)[C@@H]32)OCO4)cc(OC)c1O
inactive: UACC-62 4.8 µM | HOP-62 27.2 µM | IGROV-1 8.61 µM | LOX IMVI 4.73 µM | SK-MEL-28 5.81 µM | SN12C 12.6 µM | OVCAR-4 9.16 µM | SF-539 2.81 µM | A549 10.9 µM | UO-31 45.6 µM | UACC-257 5.93 µM | HCC 2998 26.9 µM | NCI/ADR-RES 4.02 µM | HT-29 33.7 µM | RXF 393 3.64 µM | HOP-92 25.7 µM | NCI-H522 2.54 µM

C[n+]1c2ccccc2c(C(=O)NC(CCCNC(=N)N)C(=O)O)c2ccccc21 (centres undefined)
inactive: UACC-62 > 100 µM | HOP-62 > 100 µM | IGROV-1 > 100 µM | LOX IMVI > 100 µM | SK-MEL-28 > 100 µM | TK-10 > 100 µM | SN12C > 100 µM | OVCAR-4 > 100 µM | SF-539 > 100 µM | A549 > 100 µM | UO-31 > 100 µM | UACC-257 > 100 µM | HCC 2998 > 100 µM | SF-268 > 100 µM | NCI/ADR-RES > 100 µM | HT-29 > 100 µM

O=S(=O)(O)c1cc2ccc1/C=C\c1ccc(cc1S(=O)(=O)O)/N=N\c1ccc(c(S(=O)(=O)O)c1)/C=C\c1ccc(cc1S(=O)(=O)O)/N=N\2
inactive: UACC-62 > 100 µM | HOP-62 > 100 µM | IGROV-1 > 100 µM | LOX IMVI > 100 µM | SK-MEL-28 > 100 µM | SN12C > 100 µM | OVCAR-4 > 86.1 µM | SF-539 > 100 µM | A549 > 100 µM | UO-31 > 100 µM | UACC-257 > 100 µM | HCC 2998 > 100 µM | SF-268 > 100 µM | NCI/ADR-RES > 100 µM | HT-29 > 100 µM | RXF 393 > 100 µM | HOP-92 > 100 µM | NCI-H522 > 100 µM

N#CCCC1(CCC#N)CCCCCCC(CCC#N)(CCC#N)C(O)C1O (centres undefined)
inactive: HOP-62 > 100 µM | IGROV-1 > 100 µM | LOX IMVI > 100 µM | SK-MEL-28 > 100 µM | TK-10 > 100 µM | SN12C 52.2 µM | OVCAR-4 > 100 µM | SF-539 > 100 µM | A549 > 100 µM | CAKI-1 > 100 µM | UO-31 > 100 µM | UACC-257 > 100 µM | HCC 2998 > 100 µM | SF-268 > 100 µM | NCI/ADR-RES > 100 µM | HT-29 > 100 µM | RXF 393 > 100 µM | HOP-92 > 100 µM | NCI-H522 > 100 µM

Cc1cccc(N2C(=O)C3c4[nH]c5ccc(C)cc5c4C4CCC(C(C)(C)C)CC4C3C2=O)c1 (centres undefined)
inactive: UACC-62 23.3 µM | HOP-62 15.8 µM | IGROV-1 26.5 µM | LOX IMVI 17.2 µM | SK-MEL-28 42.6 µM | TK-10 24.6 µM | OVCAR-4 23.1 µM | A549 15.8 µM | CAKI-1 31.6 µM | UO-31 43.4 µM | UACC-257 46.3 µM | SF-268 15.5 µM | NCI/ADR-RES 17.6 µM | HT-29 21.4 µM | HOP-92 15.7 µM | NCI-H522 19.9 µM

CCOC(=O)CCc1c(C)c2c(OC(C)=O)cc(OC(C)=O)cc2oc1=O
inactive: HOP-62 > 100 µM | LOX IMVI > 10 µM | SK-MEL-28 42 µM | TK-10 > 100 µM | SN12C 28.4 µM | OVCAR-4 42 µM | SF-539 70 µM | A549 47.2 µM | CAKI-1 > 100 µM | UO-31 46.2 µM | UACC-257 38.9 µM | HCC 2998 82.8 µM | SF-268 23.3 µM | HT-29 35.6 µM | RXF 393 21.4 µM | HOP-92 6.9 µM | NCI-H522 50.4 µM

Cc1[nH]c(=O)[nH]c(=O)c1C(=O)N(CCO)Cc1ccccc1
inactive: UACC-62 > 100 µM | HOP-62 > 100 µM | IGROV-1 33 µM | LOX IMVI > 100 µM | SK-MEL-28 > 100 µM | TK-10 > 100 µM | SN12C > 100 µM | OVCAR-4 29.3 µM | SF-539 > 100 µM | UO-31 > 100 µM | UACC-257 34.7 µM | HCC 2998 > 100 µM | SF-268 > 100 µM | HT-29 > 100 µM | RXF 393 30 µM | HOP-92 27 µM | NCI-H522 > 100 µM
